Source: the supplement of paper PMC11061612

Tests used:
[1] = compound: Cc1cc2ncnn2cc1Nc1ncc2c(n1)n(C1CCOCC1)c(=O)n2C [AZD7648]; conditions: max 10 µM
Outline: (§1)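 Plates with 1536 wells received cancer cell lines in 7.5 μl of DMEM/F12 or RPMI containing 10% FBS. After 24 hours at 37°C and 5% CO2, cells were dosed for 72 hours with final DMSO typically 0.2%, and viability was read by CellTiter-Glo 2.0 luminescence scaled between blank-well and DMSO-well means. The single-agent IC50 was taken from a logistic fit of the dose responses made with a non-linear mixed effects model, that logistic curve having two parameters.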

[2] = compound: CN(CC[C@H](CSC1=CC=CC=C1)NC2=C(C=C(C=C2)S(=O)(=O)NC(=O)C3=CC=C(C=C3)N4CCC(CC4)[C@H](C5=CC=CC=C5C6=CC=C(C=C6)Cl)O)S(=O)(=O)C(F)(F)F)CCO [AZD4320]; conditions: max 1 µM
Outline: as §1

[3] = compound: COc1cccc(OCCCN)c1-c1cc(Nc2cnc(C#N)cn2)n[nH]1 [Prexasertib]; conditions: max 1 µM
Outline: as §1

[4] = compound: C[C@@H]1COCCN1C2=NC(=NC(=C2)C3(CC3)[S@](=N)(=O)C)C4=C5C=CNC5=NC=C4 [AZD6738]; conditions: max 10 µM
Outline: as §1

[5] = compound: NC1(c2ccc(-c3nc4ccn5c(=O)[nH]nc5c4cc3-c3ccccc3)cc2)CCC1 [MK-2206]; conditions: max 10 µM
Outline: as §1

[6] = compound: C[C@@H](Nc1cc(F)cc(F)c1)c1cc(C(=O)N(C)C)cc2c(=O)cc(N3CCOCC3)oc12 [AZD8186]; conditions: max 3 µM
Outline: as §1

[7] = compound: C=CCn1c(=O)c2cnc(Nc3ccc(N4CCN(C)CC4)cc3)nc2n1-c1cccc(C(C)(C)O)n1 [AZD1775]; conditions: max 3 µM
Outline: as §1

[8] = compound: COc1cccc2c1C(=O)c1c(O)c3c(c(O)c1C2=O)C[C@@](O)(C(=O)CO)C[C@@H]3O[C@H]1C[C@H](N)[C@H](O)[C@H](C)O1 [Doxorubicin]; conditions: max 1 µM
Outline: as §1

[9] = compound: CS(=O)(=O)CCNCc1ccc(-c2ccc3ncnc(Nc4ccc(OCc5cccc(F)c5)c(Cl)c4)c3c2)o1 [Lapatinib]; conditions: max 10 µM
Outline: as §1

[10] = compound: C[C@@H](Oc1cc(-c2cnn(C3CCNCC3)c2)cnc1N)c1c(Cl)ccc(F)c1Cl [Crizotinib]; conditions: max 10 µM
Outline: as §1

[11] = compound: Cc1c2c(nn1C)CSCc1cc(n(C)n1)CSc1cc(c3ccccc3c1)OCCCc1c(C(=O)O)n(C)c3c-2c(Cl)ccc13 [AZD5991]; conditions: max 1 µM
Outline: as §1

[12] = compound: Cn1cnc2c(F)c(Nc3ccc(Br)cc3Cl)c(C(=O)NOCCO)cc21 [Selumetinib]; conditions: max 10 µM
Outline: as §1

[13] = compound: C[C@@H](c1ccc2nccn2c1)n1nnc2ncc(-c3cnn(C)c3)nc21 [Savolitinib]; conditions: max 1 µM
Outline: as §1

[14] = compound: COc1nnc2ccc(N3CCC(c4ccc(OCCN5CCN(C)C(=O)[C@H]5C)cc4)CC3)nn12 [AZD5153]; conditions: max 1 µM
Outline: as §1

[15] = compound: CC1=CN2[C@@H](C1)C=NC3=CC(=C(C=C3C2=O)OC)OCCCCCOC4=C(C=C5C(=C4)N=C[C@@H]6CC(=CN6C5=O)C)OC [SG3199]; conditions: max 0.001 µM
Outline: as §1

[16] = compound: C1CN(CCC1(C(=O)N[C@@H](CCO)C2=CC=C(C=C2)Cl)N)C3=NC=NC4=C3C=CN4 [Capivasertib]; conditions: max 10 µM
Outline: as §1

[17] = compound: CC1(C)CCC(CN2CCN(c3ccc(C(=O)NS(=O)(=O)c4ccc(NCC5CCOCC5)c([N+](=O)[O-])c4)c(Oc4cnc5[nH]ccc5c4)c3)CC2)=C(c2ccc(Cl)cc2)C1 [Venetoclax]; conditions: max 1 µM
Outline: as §1

[18] = compound: Cc1nc(-c2cn3c(n2)-c2ccc(-c4cnn(C(C)(C)C(N)=O)c4)cc2OCC3)n(C(C)C)n1 [Taselisib]; conditions: max 10 µM
Outline: as §1

[19] = compound: CCc1c2c(nc3ccc(O)cc13)-c1cc3c(c(=O)n1C2)COC(=O)[C@]3(O)CC [SN-38]; conditions: max 0.3 µM
Outline: as §1

[20] = compound: COc1cc2ncnc(Nc3ccc(F)c(Cl)c3)c2cc1OCCCN1CCOCC1 [Gefitinib]; conditions: max 10 µM
Outline: as §1

[21] = compound: O=C(c1cc(Cc2n[nH]c(=O)c3ccccc23)ccc1F)N1CCN(C(=O)C2CC2)CC1 [Olaparib]
Outline: as §1

[22] = compound: CC(C)n1c(=O)n(C)c2cnc3cc(F)c(-c4ccc(OCCCN5CCCCC5)nc4)cc3c21 [AZD1390]; conditions: max 0.3 µM
Outline: as §1

[23] = compound: CN(C)CCCOc1ccc(-c2ccc3ncc4c(c3c2)n(C2CCOCC2)c(=O)n4C)cn1 [AZD0156]; conditions: max 3 µM
Outline: as §1

[24] = compound: CC(=O)Nc1cccc(-n2c(=O)n(C3CC3)c(=O)c3c(Nc4ccc(I)cc4F)n(C)c(=O)c(C)c32)c1 [Trametinib]; conditions: max 1 µM
Outline: as §1

[25] = compound: CC1=C(C(=CC=C1)Cl)NC(=O)C2=CN=C(S2)NC3=CC(=NC(=N3)C)N4CCN(CC4)CCO [Dasatinib]; conditions: max 2 µM
Outline: as §1

[26] = compound: CCN(CCO)CCCOc1ccc2c(Nc3cc(CC(=O)Nc4cccc(F)c4)[nH]n3)ncnc2c1 [AZD2811]; conditions: max 1 µM
Outline: as §1

[27] = compound: COc1cc(Nc2ncc3c(n2)-c2ccc(Cl)cc2C(c2c(F)cccc2OC)=NC3)ccc1C(=O)O [Alisertib]; conditions: max 10 µM
Outline: as §1

[28] = compound: CC(=O)c1c(C)c2cnc(Nc3ccc(N4CCNCC4)cn3)nc2n(C2CCCC2)c1=O [Palbociclib]; conditions: max 10 µM
Outline: as §1

Cell Line | IC50, cell viability 72 h [1] [nM] | IC50, cell viability 72 h [2] [nM] | IC50, cell viability 72 h [3] [nM] | IC50, cell viability 72 h [4] [nM] | IC50, cell viability 72 h [5] [nM] | IC50, cell viability 72 h [6] [nM] | IC50, cell viability 72 h [7] [nM] | IC50, cell viability 72 h [8] [nM] | IC50, cell viability 72 h [9] [nM] | IC50, cell viability 72 h [10] [nM] | IC50, cell viability 72 h [11] [nM] | IC50, cell viability 72 h [12] [nM] | IC50, cell viability 72 h [13] [nM] | IC50, cell viability 72 h [14] [nM] | IC50, cell viability 72 h [15] [nM] | IC50, cell viability 72 h [16] [nM] | IC50, cell viability 72 h [17] [nM] | IC50, cell viability 72 h [18] [nM] | IC50, cell viability 72 h [19] [nM] | IC50, cell viability 72 h [20] [nM] | IC50, cell viability 72 h ([21]; max 10 µM) [nM] | IC50, cell viability 72 h [22] [nM] | IC50, cell viability 72 h [23] [nM] | IC50, cell viability 72 h [24] [nM] | IC50, cell viability 72 h [25] [nM] | IC50, cell viability 72 h [26] [nM] | IC50, cell viability 72 h [27] [nM] | IC50, cell viability 72 h [28] [nM] | IC50, cell viability 72 h ([21]; max 3 µM) [nM]
A2058 (Melanoma) | > 10000 | > 1000 | > 1000 | > 10000 | > 10000 | > 3000 | 1230 | > 1000 | 8410 | 8250 | > 1000 | > 10000 | > 1000 | 656 | > 1 | > 10000 | > 1000 | 6330 | > 300 | > 10000 | > 10000 | > 300 | > 3000 | 236 | > 2000 | > 1000 | 1220 | > 10000 | –
LN-229 (Glioblastoma) | > 10000 | > 1000 | 70.1 | > 10000 | > 10000 | > 3000 | > 3000 | > 1000 | > 10000 | > 10000 | > 1000 | > 10000 | > 1000 | > 1000 | > 1 | > 10000 | > 1000 | > 10000 | > 300 | > 10000 | > 10000 | > 300 | > 3000 | > 1000 | > 2000 | > 1000 | > 10000 | > 10000 | –
LXF-289 (Lung Adenocarcinoma) | > 10000 | > 1000 | 240 | > 10000 | – | > 3000 | 814 | > 1000 | 4860 | 4530 | > 1000 | > 10000 | > 1000 | 377 | > 1 | > 10000 | > 1000 | > 10000 | > 300 | > 10000 | > 10000 | > 300 | > 3000 | > 1000 | 171 | > 1000 | 3390 | > 10000 | –
NCI-H23 (Lung Adenocarcinoma) | > 10000 | > 1000 | 59.6 | 3270 | > 10000 | > 3000 | 381 | > 1000 | > 10000 | 5950 | 319 | > 10000 | > 1000 | 208 | > 1 | > 10000 | > 1000 | > 10000 | 102 | > 10000 | > 10000 | > 300 | > 3000 | 348 | > 2000 | > 1000 | 9990 | > 10000 | –
NCI-H446 (Small Cell Lung Carcinoma) | > 10000 | 557 | 19.3 | 4150 | 4500 | > 3000 | 400 | 499 | 6400 | 1720 | > 1000 | > 10000 | > 1000 | 209 | > 1 | 2660 | > 1000 | 2860 | 62.6 | > 10000 | > 10000 | > 300 | > 3000 | > 1000 | > 2000 | 42.8 | 54.8 | > 10000 | –
OAW-42 (Ovarian Carcinoma) | > 10000 | > 1000 | 463 | > 10000 | 3000 | > 3000 | > 3000 | – | > 10000 | > 10000 | > 1000 | > 10000 | > 1000 | > 1000 | – | > 10000 | > 1000 | 441 | 29.5 | > 10000 | – | > 300 | > 3000 | > 1000 | 909 | > 1000 | 4550 | > 10000 | > 3000
